Reference: PubChem BioAssay (NCI)
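Results reflect a 48-hour exposure of cells in 96-well plates to compound at five concentrations. GI50 is the concentration that inhibits growth by half. TGI: total growth inhibition.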

System: MDA-MB-468 breast
Experiment: NCI tumour cell line growth inhibition, 48 h

| SMILES | TGI [nM] | GI50 [nM] |
| --- | --- | --- |
| COc1ccc2c(c1)C(=O)/C(=C/c1cccc(OCC(=O)Nc3nc(C)c(C)s3)c1)O2 | 17.6 | – |
| CCn1cc(/C=C2\Oc3cc(OCC#N)ccc3C2=O)c2cc(OC)ccc21 | 13700 | 802 |
| COc1ccc(-c2nc(-c3nc4cc(Cl)c(F)cc4[nH]3)c3ccccn23)cc1 | 30300 | 2930 |
| Cc1ccc2c(n1)C(=O)C(Cl)=C(Nc1ccc(C(=O)OC(C)(C)C)cc1)C2=O | 26700 | 11100 |
| C=C1C(=O)O[C@H]2[C@H]1CC/C(Cn1cc(-c3ccc(N)cc3)nn1)=C\CC[C@@]1(C)O[C@@H]21 | 4210 | 1770 |
| Cc1cn(-c2cccc(NC(=O)c3ccc(C)c(Nc4nccc(-c5cccnc5)n4)c3)c2)cn1 | 3180 | 1610 |
| C/C(=C(/c1ccccc1)c1ccc(OCC(O)CNCCN2CCOCC2)cc1)c1ccccc1 (stereo unspecified) | 2850 | 1410 |
| COc1ccc(-c2cnnn2-c2nonc2-n2cccc2)cc1OC | 7900 | 2000 |
| COc1ccc(Nc2nc(Nc3cc(C)[nH]n3)c3cc(OC)c(OC)cc3n2)cc1 | 2530 | 1010 |
| CCCCCCCCCc1ccc(OCCOCCOCCOCCOCCOCCOCCOCCOCCO)cc1 | 1180 | 66 |
| C=C1C(=O)O[C@H]2[C@H]1CC/C(COC(=O)N[C@H]1C[C@H](O[C@H]3C[C@](O)(C(=O)CO)Cc4c(O)c5c(c(O)c43)C(=O)c3c(OC)cccc3C5=O)O[C@@H](C)[C@H]1O)=C\CC[C@@]1(C)O[C@@H]21 | 2040 | 793 |
| Clc1ccc(/C=C/c2ccc3ccccc3n2)cc1 | 2950 | 419 |
| CN(Cc1ccc(F)cc1)c1ccc(CO)c(Cl)c1 | 207 | 58 |
| Cn1c(=O)n(C)c2cc(CNCCNc3ccnc4cc(Cl)ccc34)ccc21 | 32400 | 14400 |
| Cc1ccc2sc3c(c2c1)OC(N)=C(C#N)C3c1cccc(F)c1 (stereo unspecified) | 724 | 225 |
| CCSc1ccc([C@@H]2[C@@H](O)C(=O)N2c2cc(OC)c(OC)c(OC)c2)cc1 | 57600 | < 10 |
| Cc1cc(NCc2cc(Nc3ccnc4cc(Cl)ccc34)ccc2F)nc(N2CCOCC2)n1 | 5640 | 1940 |
| c1ccc(-c2nc3n(c2-c2ccc4c(c2)OCO4)CCC3)nc1 | 17000 | 5810 |
| Nc1nc(N)c2cc(Sc3ccc4ccccc4c3)ccc2n1 | 2390 | 1100 |
| Nc1c(C(=O)c2cccc(C#CCN3CCCCC3)c2)cnn1-c1ccc(F)cc1 | > 25000 | 7720 |
| COc1ccc2[nH]cc(-c3cc(N)n4nc(-c5c[nH]c6ccc(OC)cc56)cc4n3)c2c1 | 3750 | 1730 |
| Cc1cc(CCl)c(C)cc1CCl | 1600 | 379 |
| C=C1C(=O)O[C@H]2[C@H]1CC/C(COC(=O)NCc1ccc(Cn3c(=O)sn(CCCCC)c3=O)cc1)=C\CC[C@@]1(C)O[C@@H]21 | 2640 | 1190 |

| SMILES | TGI [nM] | GI50 [nM] |
| --- | --- | --- |
| O=C(CC1(O)C(=O)Nc2ccc(F)cc21)c1ccc(C(=O)NCC2CCC3(CC2)OOC2(CCCCC2)OO3)cc1 (stereo unspecified) | 21600 | 4540 |
| CCOC(=O)c1ccc(NC(=O)NC2=NCCS2)cc1 | > 26400 | 623 |
| COc1cc(OC)c2sc(-c3ccc(-n4cncc4-c4ccc(OC)c(OC)c4)cc3)nc2c1 | > 100000 | 4150 |
| CC(C)(C)[Si](C)(C)OC1[C@@H](CNC(N)=O)O[C@@H](n2cnc3c(NC(=O)Nc4ccccc4)ncnc32)[C@H]1O[Si](C)(C)C(C)(C)C (stereo partly specified) | 8230 | 2150 |
| Cc1ccc(S(=O)(=O)c2nc(-c3ccccc3)oc2S(C)(=O)=O)cc1 | 3840 | 1770 |
| CN(C)CCCOc1cccc(NC2=C(Cl)C(=O)C(Nc3cccc(OCCCN(C)C)c3)=C(Cl)C2=O)c1 | 458 | 212 |
| CCCC1(CN2c3ccccc3Sc3ccc(Cl)cc32)CCN(CC)C1 (stereo unspecified) | 3140 | 1600 |
| CC(=O)c1ccc2c(c1)N(CCCN1CCN(CCO)CC1)c1ccccc1S2 | 3210 | 1670 |
| CCOP(=O)(OCC)OC[C@]12CCC(C)(C)C=C1[C@H]1CC[C@@H]3[C@@]4(C)CC[C@H](OP(=O)(OCC)OCC)C(C)(C)[C@@H]4CC[C@@]3(C)[C@]1(C)CC2 | 2930 | 1300 |
| FC(F)(F)c1ccc(-c2nn3ncccc3c2-c2ccnc(Nc3ccc4c(c3)OCCO4)n2)cc1 | 17600 | 4520 |
| COc1cc([C@@H]2c3cc4c(cc3[C@H](OC(C)=O)[C@H]3COC(=O)[C@@H]23)OCO4)cc(OC)c1OC | 5450 | 293 |
| CCOC(=O)c1sc(-c2ccc(OS(=O)(=O)C[C@]34CCC(CC3=O)C4(C)C)c(C=O)c2)nc1C | 3300 | 966 |
| CCN1[C@@H](C(=O)NC23CCC(C(=O)O)(CC2)CC3)[C@H](c2cccc(Cl)c2F)[C@]2(C(=O)Nc3cc(Cl)ccc32)C12CCCCC2 | 6680 | 2180 |
| CCCN(CCC)c1ccc(C=O)c(Cl)c1 | 243 | 53.8 |
| COc1cc(C2=NN(C(C)=O)C(c3cc(OC)c(OC)c(OC)c3)C2)ccc1O (stereo unspecified) | 3610 | 265 |
| Cc1cc(N/N=C/c2nc(-c3ccc(Cl)cc3)oc2C)c2cc(Br)ccc2n1 | 3630 | 1600 |
| COc1cccc(CNc2ncnc3c2ncn3C2OC(CO)C(O)C2O)c1O (stereo unspecified) | 2090 | 137 |
| COc1cc(F)ccc1-c1cc(Nc2cc(CS(C)(=N)=O)ccn2)ncc1F (stereo unspecified) | 445 | 91.5 |
| N=c1ccc2nc3ccc(N)cc3sc-2c1 | 8120 | 3020 |
| COc1ccc(C(=O)c2sc3nc(-c4ccccc4OC)ccc3c2N)cc1OC | > 100000 | 6280 |
| O=C(Nc1cccc2[nH]c(C(F)(F)F)nc12)c1cc(Cl)ccc1Cl | 7740 | 2520 |
| COc1cc(OCc2cccc(-c3ccccc3)c2C)cc(OC)c1CN1CCCCC1C(=O)NCCOCCOCCN (stereo unspecified) | 3430 | 1700 |
| COc1ccc(C2=NC(=O)NC2c2ccc(OC)cc2)cc1 (stereo unspecified) | 43700 | 4710 |
